From patent publication US10131652B2, “Pyrimidinyloxy benzene derivatives as herbicides” (E. I. DU PONT DE NEMOURS AND COMPANY, priority 2014, dated 2018)

Assays:
Assay type in all cases: in vivo
[1] = test system: ducksalad (Heteranthera limosa); assay: Test C flooded paddy test plant response; conditions: Flood, 250 g ai/ha; scale of 0 to 100 where 0 is no effect and 100 is complete control; 13 to 15 days
Method in brief: (§1)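 Two-leaf stage → flood to 3 cm → compound into water → hold depth, greenhouse 13–15 d → visual score vs controls (0 none, 100 complete control).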

[2] = test system: small-flower umbrella sedge (Cyperus difformis); assay: Test C flooded paddy test plant response; conditions: Flood, 250 g ai/ha; scale of 0 to 100 where 0 is no effect and 100 is complete control; 13 to 15 days
Method in brief: as §1

[3] = test system: rice (Oryza sativa); assay: Test C flooded paddy test plant response; conditions: Flood, 250 g ai/ha; scale of 0 to 100 where 0 is no effect and 100 is complete control; 13 to 15 days
Method in brief: as §1

[4] = test system: barnyardgrass (Echinochloa crus-galli); assay: Test C flooded paddy test plant response; conditions: Flood, 250 g ai/ha; scale of 0 to 100 where 0 is no effect and 100 is complete control; 13 to 15 days
Method in brief: as §1

[5] = test system: galium (catchweed bedstraw, Galium aparine); assay: Test B postemergence plant response
Method in brief: (§2)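 Plants grown in pots of loam soil–sand blend were sprayed postemergence with formulated test chemicals at 2 to 10 cm height, one- to two-leaf stage. After about 10 days in a greenhouse, injury was visually rated against untreated controls on a 0 to 100 scale (0 no effect, 100 complete control).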

[6] = test system: blackgrass (Alopecurus myosuroides); assay: Test B postemergence plant response
Method in brief: as §2

[7] = test system: Italian ryegrass (Lolium multiflorum); assay: Test B pre-/postemergence plant response
Method in brief: (§3)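 Visual injury rating, 0 (no effect) to 100 (complete control), vs untreated controls after ~10 d greenhouse. Pre: directed soil spray after planting in loam/sand. Post: plants 2–10 cm, 1–2 leaf stage. Compound in non-phytotoxic solvent plus surfactant.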

[8] = test system: pigweed (Amaranthus retroflexus); assay: Test B pre-/postemergence plant response
Method in brief: as §3

[9] = test system: giant foxtail (Setaria faberii); assay: Test B pre-/postemergence plant response
Method in brief: as §3

[10] = test system: wheat (Triticum aestivum); assay: Test B pre-/postemergence plant response
Method in brief: as §3

[11] = test system: ragweed (common ragweed, Ambrosia elatior); assay: Test B pre-/postemergence plant response
Method in brief: as §3

[12] = test system: kochia (Kochia scoparia); assay: Test B pre-/postemergence plant response
Method in brief: as §3

[13] = test system: barnyardgrass (Echinochloa crus-galli); assay: Test B pre-/postemergence plant response
Method in brief: as §3

[14] = test system: corn (Zea mays); assay: Test B pre-/postemergence plant response
Method in brief: as §3

[15] = 125 g ai/ha, postemergence, 0 to 100 scale, 0 no effect, 100 complete control
[16] = Postemergence, 31 g ai/ha, 0 to 100 scale (0 no effect, 100 complete control)
[17] = 31 g ai/ha, Preemergence, 0 to 100 scale where 0 is no effect and 100 is complete control
[18] = Preemergence, 125 g ai/ha, 0 to 100 scale (0 no effect, 100 complete control)

Clc1cnc(Oc2ccccc2-c2ccno2)nc1 [Compound 154]
0: Ducksalad plant response rating [1] | Sedge, Umbrella plant response rating [2] | Rice plant response rating [3] | Barnyardgrass plant response rating [4] | Plant response rating, Galium [5, 15] | Plant response rating, Galium [5, 16] | Plant response rating, Blackgrass [6, 15] | Plant response rating, Blackgrass [6, 16] | Plant response rating, Ryegrass, Italian [7, 17] | Plant response rating, Ryegrass, Italian [7, 15] | Plant response rating, Ryegrass, Italian [7, 16] | Ryegrass, Italian plant response rating [7, 18] | Plant response rating, Pigweed [8, 17] | Plant response rating, Pigweed [8, 15] | Plant response rating, Pigweed [8, 16] | Pigweed plant response rating [8, 18] | Plant response rating, Foxtail, Giant [9, 17] | Plant response rating, Foxtail, Giant [9, 15] | Plant response rating, Foxtail, Giant [9, 16] | Foxtail, Giant plant response rating [9, 18] | Plant response rating, Wheat [10, 15] | Plant response rating, Wheat [10, 16] | Plant response rating, Ragweed [11, 17] | Plant response rating, Ragweed [11, 15] | Plant response rating, Ragweed [11, 16] | Ragweed plant response rating [11, 18] | Plant response rating, Kochia [12, 17] | Plant response rating, Kochia [12, 15] | Plant response rating, Kochia [12, 16] | Kochia plant response rating [12, 18] | Plant response rating, Barnyardgrass [13, 17] | Plant response rating, Barnyardgrass [13, 15] | Plant response rating, Barnyardgrass [13, 16] | Barnyardgrass plant response rating [13, 18] | Plant response rating, Corn [14, 15] | Plant response rating, Corn [14, 16]

Brc1cnc(Oc2ccccc2-c2ccno2)nc1 [Compound 155]
0: Ducksalad plant response rating [1] | Sedge, Umbrella plant response rating [2] | Rice plant response rating [3] | Barnyardgrass plant response rating [4] | Plant response rating, Galium [5, 15] | Plant response rating, Galium [5, 16] | Plant response rating, Blackgrass [6, 15] | Plant response rating, Blackgrass [6, 16] | Plant response rating, Ryegrass, Italian [7, 17] | Plant response rating, Ryegrass, Italian [7, 15] | Plant response rating, Ryegrass, Italian [7, 16] | Ryegrass, Italian plant response rating [7, 18] | Plant response rating, Pigweed [8, 17] | Plant response rating, Pigweed [8, 15] | Plant response rating, Pigweed [8, 16] | Pigweed plant response rating [8, 18] | Plant response rating, Foxtail, Giant [9, 17] | Plant response rating, Foxtail, Giant [9, 15] | Plant response rating, Foxtail, Giant [9, 16] | Foxtail, Giant plant response rating [9, 18] | Plant response rating, Wheat [10, 15] | Plant response rating, Wheat [10, 16] | Plant response rating, Ragweed [11, 17] | Plant response rating, Ragweed [11, 15] | Plant response rating, Ragweed [11, 16] | Ragweed plant response rating [11, 18] | Plant response rating, Kochia [12, 17] | Plant response rating, Kochia [12, 15] | Plant response rating, Kochia [12, 16] | Kochia plant response rating [12, 18] | Plant response rating, Barnyardgrass [13, 17] | Plant response rating, Barnyardgrass [13, 15] | Plant response rating, Barnyardgrass [13, 16] | Barnyardgrass plant response rating [13, 18] | Plant response rating, Corn [14, 15] | Plant response rating, Corn [14, 16]
